Data reported in patent US11369577B2, “Reprogramming-based models of neurodevelopmental disorders and uses thereof” (IEO—Istituto Europeo di Oncologia S.r.l., priority 2014, dated 2022).
Where a name gives a salt, the structure may show the parent alone.

Biological target: T1, LSD1 (Homo sapiens, UniProt O60341)
T1 construct: endogenous in cells; host or cells: Embryoid bodies formed from control human iPSC line CTR1R-C3
Assay: Embryoid body formation assay with LSD1 inhibitor treatment, RT-qPCR of GTF2I target genes
Format: cell-based
Conditions: control iPSC line, treatment for 5 days at day 0 and day 4, final concentration 5 uM (Oryzon), 10 uM (DDP26095)
Experimental: Retrotranscribed cDNAs have been obtained from 1 μg of total DNA-depleted RNA using the superscript VILO retrotranscription kit from Life Technologies according to manufacturer instructions.
For real time q-PCR analysis a total amount of cDNA corresponding to 10-50 ng of starting RNA has been used for each reaction. FAST SYBR green master mix from Life Technologies and 10 μM primers pair have been used.
10 uM RA has been added at day 0 or at day 4. At day 1 EBs have been plated on a low attachment dish and media was replaced with KO-DMEM (+P/S+Glut)(EB media) 20% FBS containing. […] Next, RNA extraction and cDNA preparation has been performed as described above.

Compound	BEND4 mRNA level (RT-qPCR, percentage of GAPDH) upon irreversible LSD1 inhibition
Cl.N[C@H]1CC[C@H](N[C@@H]2C[C@H]2c2ccccc2)CC1 [Oryzon, (trans)-N1-((1R,2S)-2-phenylcyclopropyl)cyclohexane-1,4-diamine hydrochloride]	increased
N[C@@H]1C[C@H]1c1ccc(NC(=O)c2cccc(N3CCOC3=O)c2)cc1 (relative stereo) [DDP26095, N-[4-[trans-2-aminocyclopropyl]phenyl]-3-(2-oxooxazolidin-3-yl)benzamide hydrochloride]	increased
